Results as given in patent US20070010489A1 (priority 2002, published 2007).
Read-outs that look alike come from different tables or passages of the source.

Tested on: wild-type HIV-1 strain IIIB
Assay: microbe, parasite or virus in culture
Type: cell-based
[1] = Human immunodeficiency virus 1, IIIB
[2] = Human immunodeficiency virus 1, IIIB, class symbols
[3] = read-out: Anti-HIV-1 Cell Culture Activity EC50

| Compound | EC50 [1] [nM] | other results |
| --- | --- | --- |
| CC(C)CN(C[C@@H](OP(=O)(O)O)[C@H](Cc1ccccc1)NC(=O)O[C@H]1CCOC1)S(=O)(=O)c1ccc(N)cc1 [Phosphate Prodrug of Ampenavir] | 50 to 500 |  |
| CCOC(=O)C(C)OP(=O)(COc1ccc2c(c1)CCN(CC(NC(=O)OC1COC3OCCC13)C(O)CN(CC(C)C)S(=O)(=O)c1ccc(OC)cc1)C2)Oc1ccccc1 (centres unmarked) |  | EC50 [2]: 50 to 500 nM |
| CCOP(=O)(COc1ccc(CC(NC(=O)OC2COC3OCCC23)C(O)CN(CC(C)C)S(=O)(=O)c2ccc([N+](=O)[O-])cc2)cc1)OCC (centres unmarked) | < 50 |  |
| COc1ccc(S(=O)(=O)N(CC(C)C)CC(O)C(Cc2ccc(P(=O)(O)O)cc2)NC(=O)OC2COC3OCCC23)cc1 (centres unmarked) [drawing 1770 R1=OH R2=OH] | > 5000 |  |
| CCOP(=O)(CCNCc1ccc(CC(NC(=O)OC2COC3OCCC23)C(O)CN(CC(C)C)S(=O)(=O)c2ccc(OC)cc2)cc1)OCC (centres unmarked) [drawing 1779 R1=Et R2=Et] | < 50 |  |
| COc1ccc(S(=O)(=O)N(CC(C)C)CC(O)C(Cc2ccc(NCP(=O)(NC(C)C(=O)OC(C)C)Oc3ccccc3)cc2)NC(=O)OC2COC3OCCC23)cc1 (centres unmarked) [drawing 1820] |  | EC50 [2]: < 50 nM |
| CC(C)CN(CC(O)C(Cc1ccc(OCP(=O)(OCc2ccccc2)OCc2ccccc2)cc1)NC(=O)OC1COC2OCCC12)C(=O)OC(C)(C)C (centres unmarked) | 50 to 500 |  |
| COc1ccc(S(=O)(=O)N(CC(C)C)CC(O)C(Cc2ccc(NCP(=O)(OCc3ccccc3)OCc3ccccc3)cc2)NC(=O)OC2COC3OCCC23)cc1 (centres unmarked) | < 50 |  |
| COc1ccc(S(=O)(=O)N(CC2CCN(C=O)CC2)CC(O)C(Cc2ccc(OCP(=O)(OCc3ccccc3)OCc3ccccc3)cc2)NC(=O)OC2COC3OCCC23)cc1 (centres unmarked) | 50 to 500 |  |
| CCCCOC(=O)C(CC(C)C)NP(=O)(COc1ccc(CC(NC(=O)OC2COC3OCCC23)C(O)CN(CC(C)C)S(=O)(=O)c2ccc(OC)cc2)cc1)NC(CC(C)C)C(=O)OCCCC (centres unmarked) [Example 16h] |  | EC50 [3]: 120 ± 42 nM |
| COc1ccc(S(=O)(=O)N(CC(C)C)CC(O)C(Cc2ccc(NCP(=O)(NC(C)C(=O)OC(C)C)Oc3ccccc3)cc2)NC(=O)OC2COC3OCCC23)cc1 (centres unmarked) [drawing 1822] |  | EC50 (class symbols): < 50 nM |
| CCOP(=O)(CNc1ccc(CC(NC(=O)OC2COC3OCCC23)C(O)CN(CC(C)C)S(=O)(=O)c2ccc(OC)cc2)cc1)OCC (centres unmarked) | < 50 |  |
| CC(C)CN(CC(O)C(Cc1ccc(OCP(=O)(OCc2ccccc2)OCc2ccccc2)cc1)NC(=O)OC1COC2OCCC12)S(=O)(=O)c1ccccc1 (centres unmarked) | < 50 |  |
| CCOP(=O)(COc1ccc(CC(NC(=O)OC2COC3OCCC23)C(O)CN(CC(C)C)S(=O)(=O)c2cccc(N)c2)cc1)OCC (centres unmarked) | 50 to 500 |  |
| Cc1ccc(C(=O)NC(Cc2ccc(OCP(=O)(OCc3ccccc3)OCc3ccccc3)cc2)C(O)CN(CC(C)C)S(=O)(=O)c2ccc(N)cc2)cc1O (centres unmarked) | 50 to 500 |  |
| CCOP(=O)(Cc1ccc2c(c1)CCN(CC(NC(=O)OC1COC3OCCC13)C(O)CN(CC(C)C)S(=O)(=O)c1ccc(OC)cc1)C2)OCC (centres unmarked) | < 50 |  |
| CCOP(=O)(Cc1ccc(N(C)CC(NC(=O)OC2COC3OCCC23)C(O)CN(CC(C)C)S(=O)(=O)c2ccc(OC)cc2)cc1)OCC (centres unmarked) | < 50 |  |
| CC(C)CN(CC(O)C(Cc1ccc(OCP(=O)(OCc2ccccc2)OCc2ccccc2)cc1)NC(=O)OC1COC2OCCC12)S(=O)(=O)c1ccc(N)cc1 (centres unmarked) | < 50 |  |
| COc1ccc(S(=O)(=O)N(CC(C)C)CC(O)C(Cc2ccc(OCP(=O)(O)NC(C)C(=O)O)cc2)NC(=O)OC2COC3OCCC23)cc1 (centres unmarked) [Met X] |  | EC50 [3]: > 10000 nM |
| CCOP(=O)(COc1ccc(CC(NC(=O)OC2COC3OCCC23)C(O)CN(CC(C)C)S(=O)(=O)c2ccc(N)cc2)cc1)OCC (centres unmarked) | < 50 |  |

| Compound | EC50 [1] [nM] | other results |
| --- | --- | --- |
| CC(C)CN(CC(O)C(Cc1ccc(OCP(=O)(OCc2ccccc2)OCc2ccccc2)cc1)NC(=O)OC1COC2OCCC12)S(=O)(=O)c1ccc(OC(F)(F)F)cc1 (centres unmarked) | < 50 |  |
| CCOP(=O)(CN1CC=C(CC(NC(=O)OC2COC3OCCC23)C(O)CN(CC(C)C)S(=O)(=O)c2ccc(OC)cc2)CC1)OCC (centres unmarked) | < 50 |  |
| CCOP(=O)(COC1CCN(CC(NC(=O)OC2COC3OCCC23)C(O)CN(CC(C)C)S(=O)(=O)c2ccc(OC)cc2)CC1)OCC (centres unmarked) | 50 to 500 |  |
| COc1ccc(S(=O)(=O)N(CC(C)C)CC(O)C(Cc2ccccc2)NC(=O)OC2COC3OCCC23)cc1O (centres unmarked) | < 50 |  |
| COc1ccc(S(=O)(=O)N(CC(C)C)CC(O)C(Cc2ccc(OCP(=O)(OCc3ccccc3)OC(C)C(=O)OCc3ccccc3)cc2)NC(=O)OC2COC3OCCC23)cc1 (centres unmarked) [drawing 1775 R1=OBn R2=Lac-Bn] | 50 to 500 |  |
| COc1ccc(S(=O)(=O)N(CC(C)C)CC(O)C(Cc2ccc(OCc3ccccc3)cc2)NC(=O)OC2COC3OCCC23)cc1 (centres unmarked) | < 50 |  |
| CCOC(=O)C(Cc1ccccc1)NP(=O)(COc1ccc(CC(NC(=O)OC2COC3OCCC23)C(O)CN(CC(C)C)S(=O)(=O)c2ccc(OC)cc2)cc1)NC(Cc1ccccc1)C(=O)OCC (centres unmarked) [Example 16i] |  | EC50 [3]: 17 ± 12 nM |
| COc1ccc(S(=O)(=O)N(CC(C)C)CC(O)C(CC2=CCN(CCP(=O)(OC)OC)CC2)NC(=O)OC2COC3OCCC23)cc1 (centres unmarked) | 50 to 500 |  |
| CC(C)CN(CC(O)C(Cc1ccc(OCCN(C)C)cc1)NC(=O)OC1COC2OCCC12)S(=O)(=O)c1ccc(OCP(=O)(OCc2ccccc2)OCc2ccccc2)cc1 (centres unmarked) [OC2H4—NMe2, OBn] | 50 to 500 |  |
| COc1ccc(S(=O)(=O)N(CC(C)C)CC(O)C(CC2=CCN(CCP(=O)(OCc3ccccc3)OCc3ccccc3)CC2)NC(=O)OC2COC3OCCC23)cc1 (centres unmarked) | < 50 |  |
| CC(C)CN(CC(O)C(Cc1ccc(OCP(=O)(OCc2ccccc2)OCc2ccccc2)cc1)NC(=O)OC1COC2OCCC12)S(=O)(=O)N1CCN(C)CC1 (centres unmarked) | 50 to 500 |  |
| CC(C)CN(CC(O)C(Cc1ccccc1)NC(=O)OC1COC2OCCC12)S(=O)(=O)c1ccc(O)cc1 (centres unmarked) | < 50 |  |
| CCCCOC(=O)C(C)OP(=O)(COc1ccc(CC(NC(=O)OC2COC3OCCC23)C(O)CN(CC(C)C)S(=O)(=O)c2cccc(N)c2)cc1)Oc1ccccc1 (centres unmarked) | 50 to 500 |  |
| CCOP(=O)(Cc1ccc(NCC(NC(=O)OC2COC3OCCC23)C(O)CN(CC(C)C)S(=O)(=O)c2ccc(OC)cc2)cc1)OCC (centres unmarked) | < 50 |  |
| COc1ccc(S(=O)(=O)N(CC(C)C)C[C@@H](OP(=O)(O)O)[C@H](Cc2ccccc2)NC(=O)O[C@H]2CO[C@H]3OCC[C@H]32)cc1 [Phosphate Prodrug of 94-003] | < 50 |  |
| COC(=O)C(C)OP(=O)(COc1ccc(CC(NC(=O)OC2COC3OCCC23)C(O)CN(CC(C)C)S(=O)(=O)c2ccc(OC)cc2)cc1)Oc1ccccc1 [drawing 1775 R1=OPh R2=(R)Lac-Me] |  | EC50 [2]: < 50 nM |
| CCOC(=O)C(C)OP(=O)(O)COc1ccc(CC(NC(=O)OC2COC3OCCC23)C(O)CN(CC(C)C)S(=O)(=O)c2ccc(OC)cc2)cc1 (centres unmarked) [Met LX] |  | EC50 [3]: 1750 ± 354 nM |
| CC(C)CN(CC(O)C(Cc1ccc(OCP(=O)(OCc2ccccc2)OCc2ccccc2)cc1)NC(=O)OC1COC2OCCC12)S(=O)(=O)c1ccc(F)cc1 (centres unmarked) | < 50 |  |
| CC(C)CN(C[C@@H](O)[C@H](Cc1ccccc1)NC(=O)O[C@H]1CO[C@H]2OCC[C@H]21)S(=O)(=O)c1ccc(OCP(=O)(Oc2ccccc2)O[C@@H](C)C(=O)OC(C)C)cc1 (some centres unmarked) [OPh, Lac-iPr] | 500 to 5000 |  |
| COc1ccc(S(=O)(=O)N(CCN2CCOCC2)CC(O)C(Cc2ccc(OCP(=O)(OCc3ccccc3)OCc3ccccc3)cc2)NC(=O)OC2COC3OCCC23)cc1 (centres unmarked) | 50 to 500 |  |

| Compound | EC50 [1] [nM] | other results |
| --- | --- | --- |
| CC(C)CN(CC(O)C(Cc1ccccc1)NC(=O)OC1COC2OCCC12)S(=O)(=O)c1cccc(O)c1 (centres unmarked) | < 50 |  |
| CCOP(=O)(COc1cc(S(=O)(=O)N(CC(C)C)CC(O)C(Cc2ccccc2)NC(=O)OC2COC3OCCC23)ccc1O)OCC (centres unmarked) | 50 to 500 |  |
| CC(C)CN(CC(O)C(Cc1ccc(O)cc1)NC(=O)OC1COC2OCCC12)S(=O)(=O)c1cccc(N)c1 (centres unmarked) [OH, m-NH2] | 50 to 500 |  |
| CCOP(=O)(CON=Cc1ccc(CC(NC(=O)OC2COC3OCCC23)C(O)CN(CC(C)C)S(=O)(=O)c2ccc(OC)cc2)cc1)OCC (centres unmarked) [drawing 1781 R1=Et R2=Et] | < 50 |  |
| CC(C)CN(CC(O)C(Cc1ccc(OCP(=O)(OCc2ccccc2)OCc2ccccc2)cc1)NC(=O)OC1COC2OCCC12)S(=O)(=O)c1cccc(N)c1 (centres unmarked) | < 50 |  |
| CCOP(=O)(CCC1=CCN(CC(NC(=O)OC2COC3OCCC23)C(O)CN(CC(C)C)S(=O)(=O)c2ccc(OC)cc2)CC1)OCC (centres unmarked) | < 50 |  |
| COc1ccc(S(=O)(=O)N(CC(C)C)CC(O)C(Cc2ccccc2)NC(=O)OC2COC3OCCC23)cc1OCP(=O)(O)O (centres unmarked) | 50 to 500 |  |
| CCOP(=O)(COc1ccc(S(=O)(=O)N(CC(C)C)CC(O)C(Cc2ccc(N(C)C)cc2)NC(=O)OC2COC3OCCC23)cc1)OCC (centres unmarked) [NMe2, OEt] | < 50 |  |
| CC(C)CN(CC(O)C(Cc1ccc(O)cc1)NC(=O)OC1COC2OCCC12)S(=O)(=O)c1ccc(OCP(=O)(OCc2ccccc2)OCc2ccccc2)cc1 (centres unmarked) [OH, OBn] | 50 to 500 |  |
| CC(C)CN(CC(O)C(Cc1ccc(OCCN(C)C)cc1)NC(=O)OC1COC2OCCC12)S(=O)(=O)c1ccc(OCP(=O)(O)O)cc1 (centres unmarked) [OC2H4NMe2, OH] | 500 to 5000 |  |
| CCNc1ccc(S(=O)(=O)N(CC(C)C)CC(O)C(Cc2ccc(OCP(=O)(OCC)OCC)cc2)NC(=O)OC2COC3OCCC23)cc1 (centres unmarked) | < 50 |  |
| CCOP(=O)(CCN1CCN(CC(NC(=O)OC2COC3OCCC23)C(O)CN(CC(C)C)S(=O)(=O)c2ccc(OC)cc2)CC1)OCC (centres unmarked) | 50 to 500 |  |
| CCOP(=O)(COc1cc(S(=O)(=O)N(CC(C)C)CC(O)C(Cc2ccccc2)NC(=O)OC2COC3OCCC23)ccc1OC)OCC (centres unmarked) | 50 to 500 |  |
| CC(C)CN(CC(O)C(Cc1ccccc1)NC(=O)OC1COC2OCCC12)S(=O)(=O)c1cccc(OCP(=O)(O)O)c1 (centres unmarked) | 50 to 500 |  |
| CCCCOC(=O)CNP(=O)(COc1ccc(CC(NC(=O)OC2COC3OCCC23)C(O)CN(CC(C)C)S(=O)(=O)c2ccc(OC)cc2)cc1)NCC(=O)OCCCC (centres unmarked) [Compound 16b] |  | EC50 (Human immunodeficiency virus 1, IIIB, MT2, 120 h, read-out: Anti-HIV-1 Cell Culture Activity EC50): 17.5 ± 10.5 nM |
| CC(C)CN(CC(O)C(Cc1ccc(O)cc1)NC(=O)OC1COC2OCCC12)S(=O)(=O)c1ccc(N)cc1 (centres unmarked) [OH, p-NH2] | 50 to 500 |  |
| COc1ccc(S(=O)(=O)N(CC(C)C)CC(O)C(Cc2ccc(NCP(=O)(NC(C)C(=O)OC(C)C)Oc3ccccc3)cc2)NC(=O)OC2COC3OCCC23)cc1 (centres unmarked) [drawing 1821] |  | EC50 (class symbols): 50 to 500 nM |
| CC(C)CN(CC(O)C(Cc1ccc(OCP(=O)(OCc2ccccc2)OCc2ccccc2)cc1)NC(=O)OC1COC2OCCC12)S(=O)(=O)c1ccc(C(F)(F)F)cc1 (centres unmarked) | < 50 |  |
| CC(C)CN(CC(O)C(Cc1ccc(OCP(=O)(OCc2ccccc2)OCc2ccccc2)cc1)NC(=O)OC1COC2OCCC12)S(=O)(=O)c1ccc(C#N)cc1 (centres unmarked) | < 50 |  |
